Experimental data as given in publication PMC10058671 (Pharmaceutics, 2023).
pEC50: −log10 of the molar value. ≈ marks a conversion by molar mass, not a printed value. Where two headings read alike, the source gives them in different places.

Legend:
[1] = in vivo; cited from earlier work
SARS-CoV-2 [2] = conditions: Call-3 cells, dose-dependent manner; cited from earlier work
[3] = rodents; cited from earlier work
SARS-CoV-2 [4] = system: SARS-CoV-2; set-up: method as in PMID 32786284; conditions: anti-SARS-CoV-2; cited from earlier work
seasonal influenza A = conditions: Call-3 cells, dose-dependent manner; cited from earlier work
[5] = Pharmacokinetic study after daily oral pyronaridine/artesunate in hamsters (noncompartmental analysis of observed blood, lung and trachea concentrations); set-up: species or system golden hamsters; conditions: for tolerability of the doses (no unscheduled deaths): 180/60 and 360/120 mg/kg pyronaridine/artesunate oral once a day for 3 days
Description: One hundred eight male golden hamsters were obtained from Janvier Lab. (Le Genest-Saint-Isle, France). All hamsters were maintained on a 12-h dark–light cycle at a temperature of 23 ± 3 °C and relative humidity of 55 ± 15%. This study was conducted according to the Guidelines for Ethical Conduct in the Care and Use of Animals and the rules of Good Laboratory Practice and was approved by the Institutional Animal Care and Use Committee (IACUC, protocol number SP2021-14) at Shin Poong Pharm. Co., Ltd. (Seoul, Republic of Korea).
The hamsters (102.01 ± 5.72 g) were divided into two groups: a low-dose group (n = 60) and a high-dose group (n = 48). […] Blood samples (0.5 mL) were drawn from the jugular vein into heparinized tubes at the following times: 0 (predose), 0.08, 0.25, 0.5, 0.75, 1, 2, 4, 8, 12, 24, 47, 48.08, 48.25, 48.5, 48.75, 49, 50, 52, 56, 60, and 72 h during oral administration for 3 days. The blood sampling was conducted 1–3 times per hamster within 72 h, and the tissues were collected after the last blood sampling. The number of animals was four per blood and tissue sampling time point, respectively (each n = 4). The lung and trachea tissues were immediately obtained after sacrificing hamsters, washed in normal saline, and dried with filter papers. The lung and trachea sampling times were as follows: 0.08, 0.25, 0.5, 0.75, 1, 4, 8, 24, 48.08, 48.25, 48.75, 52, and 72 h. Tissues were individually weighed and homogenized with water (lung or trachea tissue: water = 1:4 w/v). The lung and trachea tissue homogenate were stored at −70 °C until sample analysis. For pyronaridine quantification, whole blood samples were stored at −70 °C until sample analysis.
Liquid chromatography was conducted on the Agilent 1290 Infinity II LC System (Agilent Technologies Inc., Santa Clara, CA, USA) coupled to a 6490 Triple Quad Mass Spectrometer (Agilent Technologies Inc., Santa Clara, CA, USA). A Synergi Max-RP column (2.0 × 75 mm, 4 μm particle size, Phenomenex, Torrance, CA, USA) was used at a temperature of 25 °C. The mobile phase consisted of 0.04% TFA (mobile phase A) and methanol:acetonitrile (3:1 v/v, mobile phase B) with a flow rate of 0.2 mL/min. A gradient elution was used for the chromatographic separation of pyronaridine as follows: 0.0–1.5 min, 10% B; 1.5–1.6 min, 10–60% B; 1.6–4.0 min, 60% B; 4.0–4.1 min, 60–10% B; […], 10% B. The multiple reaction monitoring (MRM) mode was set with a positive electrospray ionization mode. The MRM transitions of pyronaridine and amodiaquine (internal standard, IS) were 518.2 > 447.1 and 356.2 > 283.0. The collision energy of pyronaridine and amodiaquine were 17 and 21 eV, and the cell accelerator voltage was 5 V for both compounds.
Chromatographic separation was performed with an Inertsil ODS column (2.1 × 100 mm, 5 µm particle size, GL Sciences, Tokyo, Japan) column at a temperature of 25 ℃. The mobile phase consisted of 10 mM ammonium acetate (mobile phase A) and acetonitrile (mobile phase B) with an isocratic elution (A:B = 10:90, v/v), and a flow rate of 0.2 mL/min. The mass spectrometer was operated on electrospray ionization positive mode.
Fifty μL of hamster blood, lung, or trachea tissue homogenates were added with 10 μL of the IS solution (10 μg/mL of amodiaquine). Added to the mixed sample were 125 μL of 0.5 M sodium phosphate tribasic dodecahydrate buffer (pH adjusted to 10.3 with 85% ortho-phosphoric acid) and 500 μL of ether, vortexed for 5 min and centrifuged at 21,130× g for 5 min. Then, 300 μL of supernatant were transferred to new microtubes and dried under nitrogen steam at room temperature. The dried residues were reconstituted with 100 μL of mobile phase (0.04% TFA:methanol:acetonitrile = 40:45:15, v/v/v) and vortexed for 5 min. After centrifugation at 21,130× g for 5 min, 5 μL of aliquot were injected into the UPLC-MS/MS system.
Then, 50 μL of hamster plasma, lung, or trachea tissue homogenates were added with 10 μL of the IS solution (5 μg/mL of artemisinin).

SARS-CoV-2 [6] = system: SARS-CoV-2; set-up: method as in PMID 34272426; conditions: range in different cell types; cited from earlier work
[7] = dog, in vivo; cited from earlier work
[8] = rat, in vivo; cited from earlier work
[9] = cited from earlier work
SARS-CoV-2 in Vero cells = conditions: cited from earlier work
SARS-CoV-2 [10] = system: SARS-CoV-2; set-up: method as in PMID 35609344; conditions: SARS-CoV-2 infected mice; cited from earlier work
[11] = system: SARS-CoV-2 in Calu-3 cells; set-up: method as in PMID 34755538; conditions: cited from earlier work
[12] = system: SARS-CoV-2 in Huh7.5 cells; set-up: method as in PMID 34755538; conditions: cited from earlier work
SARS-CoV-2 [13] = system: SARS-CoV-2; set-up: method as in PMID 32916297; conditions: in vitro anti-SARS-CoV-2; cited from earlier work
[14] = system: SARS-CoV-2 in Vero E6 cells; set-up: method as in PMID 33075512; conditions: cited from earlier work
[15] = fitted, parent-metabolite model
[16] = male, golden, hamster, in vivo, po, 180 mg/kg
[17] = male, golden, hamster, in vivo, po, 360 mg/kg

## C[C@H]1[C@H](OC(=O)CCC(=O)O)O[C@@H]2O[C@@]3(C)CC[C@H]4[C@H](C)CC[C@@H]1[C@@]24OO3 [Artesunate, artesunate]
[1]
  elimination half-life: 19.2 to 31.2 min
  time to peak concentrations: less than five minutes
  time until concentrations decreased below the quantification limit: 2 h
SARS-CoV-2 [2]
  growth and viral replication of SARS-CoV-2: inhibited the growth and viral replication
[3]
  maximal nonlethal dose: 500 mg/kg
SARS-CoV-2 [4]
  pEC50: 4.89
Seasonal influenza A
  growth and viral replication of seasonal influenza A: inhibited the growth and viral replication
[5]
  tolerability of the doses (no unscheduled deaths): tolerated
SARS-CoV-2 [6]
  pEC50: 4.51 to 4.74
fitted
  Klung (lung-to-blood partition coefficient): 10.33
  Ktrachea (trachea-to-blood partition coefficient): 1.48
  ka (first-order absorption rate constant): 1.74 h⁻¹
  klt (lung-to-trachea transfer rate constant): 0.34 h⁻¹
  ktl (trachea-to-lung transfer rate constant): 1.50 h⁻¹
hamster
  CL/F (apparent total clearance): 2517.70 L/h

## C[C@H]1[C@@H](O)O[C@@H]2O[C@@]3(C)CC[C@H]4[C@H](C)CC[C@@H]1[C@@]24OO3 [Dihydroartemisinin, dihydroartemisinin]
[1]
  elimination half-life: 19.2 to 31.2 min
  time to peak concentrations: less than five minutes
SARS-CoV-2 [4]
  pEC50: 4.88
[7]
  elimination half-life: 0.39 to 0.66 h
[8]
  elimination half-life: 15 to 61.8 min
[9]
  blood-to-plasma ratio / partition coefficient (Kb:p, Kb:p,m): 0.75
[15]
  Klung,m (lung-to-blood partition coefficient): 0.34
  Krest,m (rest of the body-to-blood partition coefficient): 1.21
  Ktrachea,m (trachea-to-blood partition coefficient): 1.08
  klt,m (lung-to-trachea transfer rate constant): 0.35 h⁻¹
  ktl,m (trachea-to-lung transfer rate constant): 6.98 h⁻¹
hamster
  CLm/F (apparent total clearance of metabolite): 10.33 L/h

## COc1ccc2nc3cc(Cl)ccc3c(Nc3cc(CN4CCCC4)c(O)c(CN4CCCC4)c3)c2n1 [Pyronaridine, Pyronaridine tetraphosphate]
SARS-CoV-2 in Vero cells; after 24 h of culture
  EC50: 0.5699 µg/mL (≈ 1.1 µM)
SARS-CoV-2 in Vero cells; after 48 h of culture
  EC50: 1.1397 µg/mL (≈ 2.2 µM)
SARS-CoV-2 [2]
  growth and viral replication of SARS-CoV-2: inhibited the growth and viral replication
[3]
  maximal nonlethal dose: 1500 mg/kg
SARS-CoV-2 [10]
  viral load in the lungs: significant inhibition of the viral load in the lungs
[7]
  elimination half-life: 60 h
[11]
  concentration showing anti-SARS-CoV-2 activity: 8.6 ng/mL
[8]
  elimination half-life: two to four days
Seasonal influenza A
  growth and viral replication of seasonal influenza A: inhibited the growth and viral replication
[5]
  tolerability of the doses (no unscheduled deaths): tolerated
[5]; male, golden, hamster, in vivo, lung-to-blood AUC ratio
  Kp at 3 day: 51
[5]; male, golden, hamster, in vivo, lung-to-blood AUC ratio (=AUClung/AUCblood)
  Kp at 1 day: 25.5
[5]; [16]
  AUC at 1 day: 24100 ng·h/mL
  AUC at 3 day: 57100 ng·h/mL
  Cmax: 2700 ng/mL
[5]; [17]
  AUC at 1 day: 51000 ng·h/mL
  AUC at 3 day: 84900 ng·h/mL
  Cmax: 4540 ng/mL
  Tmax: 120 to 240 min
[5]; male, golden, hamster, in vivo, trachea-to-blood AUC ratio
  Kp at 3 day: 16.6
[5]; male, golden, hamster, in vivo, trachea-to-blood AUC ratio (=AUCtrachea/AUCblood)
  Kp at 1 day: 7.17
[12]
  concentration showing anti-SARS-CoV-2 activity: 103.6 ng/mL
SARS-CoV-2 [13]
  pEC50: 6.14
  EC90: 0.75 µM
[9]
  blood-to-plasma ratio: 4.9–17.8
fitted
  Klung (lung-to-blood partition coefficient): 26.06
  Krest (rest of the body-to-blood partition coefficient): 5.25 × 10^−7
  Ktrachea (trachea-to-blood partition coefficient): 8.67
  ka (first-order absorption rate constant): 0.03 h⁻¹
  klt (lung-to-trachea transfer rate constant): 0.92 h⁻¹
  ktl (trachea-to-lung transfer rate constant): 1.01 h⁻¹
hamster
  CL/F (apparent total clearance): 0.21 L/h
[14]
  EC50: 0.373 µg/mL (≈ 0.72 µM)
